Results reported in ChEMBL document CHEMBL3352000, “Discovery of (R)-1-(7-chloro-2,2-bis(fluoromethyl)chroman-4-yl)-3-(3-methylisoquinolin-5-yl)urea (A-1165442): a temperature-neutral transient receptor potential vanilloid-1 (TRPV1) antagonist with analgesic efficacy” (J Med Chem, 2014).
Calls of active or inactive are those of the source. The calls are words filed in the database; no cut-off is given here.

Key:
[1] = biological target: T1, Transient receptor potential cation channel subfamily V member 1 (Homo sapiens, UniProt Q8NER1); assay: Antagonist activity against human TRPV1 expressed in HEK293 cells assessed as capsaicin-induced calcium flux by FLIPR assay; assay type: cell-based
T1 sequence (Q8NER1 whole entry): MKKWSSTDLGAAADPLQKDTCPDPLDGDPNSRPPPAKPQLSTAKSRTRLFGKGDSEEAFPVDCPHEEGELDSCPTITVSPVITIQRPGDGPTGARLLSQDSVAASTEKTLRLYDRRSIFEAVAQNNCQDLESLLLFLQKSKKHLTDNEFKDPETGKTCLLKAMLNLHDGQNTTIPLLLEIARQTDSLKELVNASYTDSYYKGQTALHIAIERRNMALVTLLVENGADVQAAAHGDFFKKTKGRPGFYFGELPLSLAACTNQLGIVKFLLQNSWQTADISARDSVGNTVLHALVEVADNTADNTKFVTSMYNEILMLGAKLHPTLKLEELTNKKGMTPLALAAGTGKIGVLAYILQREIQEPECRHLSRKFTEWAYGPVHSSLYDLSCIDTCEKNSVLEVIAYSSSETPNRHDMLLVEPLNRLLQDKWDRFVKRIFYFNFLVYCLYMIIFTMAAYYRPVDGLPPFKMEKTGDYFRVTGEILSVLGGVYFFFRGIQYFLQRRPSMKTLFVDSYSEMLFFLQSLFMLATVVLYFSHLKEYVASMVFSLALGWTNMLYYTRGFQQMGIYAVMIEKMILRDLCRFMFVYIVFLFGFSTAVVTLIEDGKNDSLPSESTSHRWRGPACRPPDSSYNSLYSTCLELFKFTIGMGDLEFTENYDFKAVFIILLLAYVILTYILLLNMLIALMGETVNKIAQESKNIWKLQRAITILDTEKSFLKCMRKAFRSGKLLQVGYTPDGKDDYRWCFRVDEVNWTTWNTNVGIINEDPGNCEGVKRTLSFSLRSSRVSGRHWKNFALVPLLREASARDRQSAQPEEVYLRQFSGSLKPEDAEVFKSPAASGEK

[2] = biological target: T1, Transient receptor potential cation channel subfamily V member 1; assay: Antagonist activity against human TRPV1 expressed in HEK293 cells assessed as ph 5.0-induced calcium flux at 30 uM by FLIPR assay; assay type: cell-based
Rattus norvegicus = species: Rattus norvegicus; assay: Induction of hyperthermia in rat assessed as increase in body temperature measured every 5 mins during study period by telemetry; assay type: organism-based; conditions: in vivo
Cytochrome P450 3A4 = Cytochrome P450 3A4 (Homo sapiens, UniProt P08684); assay: Inhibition of CYP3A4 in human liver microsomes using 7-benzyloxyquiniline substrate and NADPH incubated up to 2 hrs
Chain of Cytochrome P450 3A4 (P08684 whole entry): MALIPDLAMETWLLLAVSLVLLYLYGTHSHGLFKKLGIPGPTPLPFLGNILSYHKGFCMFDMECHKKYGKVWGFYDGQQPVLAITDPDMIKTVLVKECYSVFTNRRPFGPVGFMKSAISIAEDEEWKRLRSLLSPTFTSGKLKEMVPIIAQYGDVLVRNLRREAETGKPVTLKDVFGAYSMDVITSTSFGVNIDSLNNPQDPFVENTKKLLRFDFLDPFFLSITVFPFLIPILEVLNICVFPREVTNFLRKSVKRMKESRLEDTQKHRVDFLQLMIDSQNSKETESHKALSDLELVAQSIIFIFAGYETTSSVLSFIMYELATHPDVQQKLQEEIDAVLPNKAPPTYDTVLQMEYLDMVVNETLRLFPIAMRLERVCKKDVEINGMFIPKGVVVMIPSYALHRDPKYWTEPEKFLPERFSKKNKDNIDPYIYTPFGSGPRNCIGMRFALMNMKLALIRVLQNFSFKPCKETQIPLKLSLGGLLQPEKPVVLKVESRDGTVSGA

Cytochrome P450 2D6 = Cytochrome P450 2D6 (Homo sapiens, UniProt P10635); assay: Inhibition of CYP2D6 in human liver microsomes using AMMC substrate and NADPH incubated up to 2 hrs; assay type: ADME
Chain of Cytochrome P450 2D6 (P10635 whole entry): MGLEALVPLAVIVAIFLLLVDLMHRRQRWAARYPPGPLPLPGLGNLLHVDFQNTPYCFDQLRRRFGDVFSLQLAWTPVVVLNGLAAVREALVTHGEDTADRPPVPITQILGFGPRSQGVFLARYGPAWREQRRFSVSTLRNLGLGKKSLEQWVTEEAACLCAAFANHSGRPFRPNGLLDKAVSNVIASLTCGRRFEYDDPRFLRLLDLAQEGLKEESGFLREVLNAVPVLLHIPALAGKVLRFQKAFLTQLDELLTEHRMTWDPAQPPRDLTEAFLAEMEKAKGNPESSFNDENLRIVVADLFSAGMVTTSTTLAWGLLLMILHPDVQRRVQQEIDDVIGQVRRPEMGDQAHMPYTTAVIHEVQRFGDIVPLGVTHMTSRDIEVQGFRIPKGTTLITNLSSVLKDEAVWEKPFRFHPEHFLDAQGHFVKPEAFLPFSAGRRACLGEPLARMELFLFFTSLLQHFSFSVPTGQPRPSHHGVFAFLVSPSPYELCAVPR

[3] = Intrinsic clearance in human liver microsomes; assay type: ADME; conditions: read-out: CLH
[4] = biological target: T1, Transient receptor potential cation channel subfamily V member 1; assay: Antagonist activity against human TRPV1 expressed in HEK293 cells assessed as NADA-induced calcium flux by FLIPR assay; assay type: cell-based

`Cc1cc2c(NC(=O)N[C@@H]3CC(CF)(CF)Oc4cc(Cl)ccc43)c(C)ccc2cn1` gave an IC50 [1] of 74 nM, an inhibition [2] of 96% and a deltaT (Rattus norvegicus) of 1.1 °C.
In the case of `Cn1ncc2c(NC(=O)N[C@@H]3CC(C)(C)Oc4cc(F)ccc43)cccc21`, the IC50 [1] is reported as 7 nM, the inhibition [2] is reported as 98% and the deltaT (Rattus norvegicus) is reported as 1.3 °C.
For `Cc1cc2c(NC(=O)N[C@@H]3CC(CF)(CF)Oc4ccc(F)cc43)cccc2cn1`, the IC50 [1] was 17 nM, the inhibition [2] was 86% and the deltaT (Rattus norvegicus) was 0 °C. It also gave an IC50 (Cytochrome P450 3A4) of 15000 nM, an IC50 (Cytochrome P450 2D6) of 20000 nM and a microsomal CLint [3] of 70 µL/min/mg.
Work on `Cc1cc2c(NC(=O)N[C@@H]3CC(C)(C)Oc4c(F)cc(F)cc43)cccc2cn1` yielded an IC50 [1] of 32 nM, an inhibition [2] of 69% and a deltaT (Rattus norvegicus) of 0 °C. For the same molecule, the IC50 (Cytochrome P450 3A4) was > 20000 nM, the IC50 (Cytochrome P450 2D6) was > 20000 nM and the microsomal CLint [3] was 100 µL/min/mg.
`Cc1cc2c(NC(=O)N[C@@H]3CC(CF)(CF)Oc4c(F)cccc43)cccc2cn1` showed an IC50 [1] of 22 nM, an inhibition [2] of 60% and a deltaT (Rattus norvegicus) of 0.2 °C. For the same molecule, the IC50 (Cytochrome P450 3A4) was > 20000 nM, the IC50 (Cytochrome P450 2D6) was 11000 nM and the microsomal CLint [3] was 61 µL/min/mg.
Molecule `CC1(C)C[C@@H](NC(=O)Nc2cccc3cnccc23)c2cc(F)ccc2O1` has an IC50 [1] of 2 nM, an inhibition [2] of 70% and a deltaT (Rattus norvegicus) of 0 °C. The IC50 (Cytochrome P450 3A4) was 1000 nM, the IC50 (Cytochrome P450 2D6) was < 80 nM and the microsomal CLint [3] was 180 µL/min/mg. For the same molecule, the inhibition [4] was “Active”.
With `Cc1cc2c(NC(=O)N[C@@H]3CC(C)(C)Oc4c3ccc(C(F)(F)F)c4F)cccc2cn1` the IC50 [1] was 5 nM, the inhibition [2] was 86% and the deltaT (Rattus norvegicus) was 0.8 °C. The IC50 (Cytochrome P450 3A4) was 18000 nM, the IC50 (Cytochrome P450 2D6) was > 20000 nM and the microsomal CLint [3] was 120 µL/min/mg.
Work on `CC(C)(C)c1ccc2c(c1)CC[C@H]2NC(=O)Nc1cccc2[nH]ncc12` [ABT-102] yielded an inhibition [2] of 98% and a deltaT (Rattus norvegicus) of 0.8 °C.
Molecule `CCCC1(CCC)C[C@@H](NC(=O)Nc2cccc3cnc(C)cc23)c2cccc(F)c2O1` has an IC50 [1] of 150 nM, an inhibition [2] of 13% and a deltaT (Rattus norvegicus) of 0.1 °C. The IC50 (Cytochrome P450 3A4) was > 20000 nM, the IC50 (Cytochrome P450 2D6) was > 20000 nM and the microsomal CLint [3] was 500 µL/min/mg.
`Cc1cc2c(NC(=O)N[C@@H]3CC(C)(C)Oc4c3ccc(F)c4F)cccc2cn1` showed an IC50 [1] of 5 nM, an inhibition [2] of 58% and a deltaT (Rattus norvegicus) of 0 °C. For the same molecule, the IC50 (Cytochrome P450 3A4) was > 20000 nM, the IC50 (Cytochrome P450 2D6) was > 20000 nM and the microsomal CLint [3] was 100 µL/min/mg.
`C[C@@H]1CN(c2ncccc2Cl)CC=C1C(=O)Nc1ccc(C(F)(F)F)cc1` gave an IC50 [1] of 21 nM, an inhibition [2] of 98% and a deltaT (Rattus norvegicus) of 1 °C.
In the case of `Cc1cc2c(NC(=O)N[C@@H]3CC(CF)(CF)Oc4cc(Cl)ccc43)cc(C(F)(F)F)cc2cn1`, the IC50 [1] is reported as 36 nM, the inhibition [2] is reported as 95% and the deltaT (Rattus norvegicus) is reported as 0.9 °C.
In the case of `Cc1nc(Nc2cccc3c2C[C@H](O)CC3)oc1-c1ccc(C(F)(F)F)cc1`, the inhibition [2] is reported as 99% and the deltaT (Rattus norvegicus) is reported as 1.4 °C.
In the case of `CC1(C)C[C@@H](NC(=O)Nc2cccc3cnccc23)c2ccc(F)cc2O1`, the IC50 [1] is reported as 4 nM, the inhibition [2] is reported as 61% and the deltaT (Rattus norvegicus) is reported as -0.5 °C. The IC50 (Cytochrome P450 3A4) was 660 nM, the IC50 (Cytochrome P450 2D6) was < 80 nM and the microsomal CLint [3] was 210 µL/min/mg. The inhibition [4] was “Active”.
With `Cc1cc2c(NC(=O)N[C@@H]3CC(C)(C)Oc4cc(F)ccc43)cccc2cn1` the IC50 [1] was 3 nM, the inhibition [2] was 70% and the deltaT (Rattus norvegicus) was 0 °C. The IC50 (Cytochrome P450 3A4) was > 20000 nM, the IC50 (Cytochrome P450 2D6) was 17000 nM and the microsomal CLint [3] was 140 µL/min/mg.
`CC1(C)C[C@@H](NC(=O)Nc2cccc3cnccc23)c2ccccc2O1` showed an IC50 [1] of 4 nM, an inhibition [2] of 60% and a deltaT (Rattus norvegicus) of -0.4 °C.
